In the test the target is T1, human FFAR1 (GPR40) (Homo sapiens, UniProt O14842).
T1 construct: Flag; expressed in transfected cells; host or cells: HEK293T
Put plainly: NFAT-RE-based reporter gene activity assay (Dual-Glo luciferase) for GPR40 agonistic activity in co-transfected HEK293T cells. The test is classed as cell-based. The following applies: 4-hour treatment; for Efficacy (%): class symbols. In outline: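 Agonism read as NFAT-RE-driven firefly luciferase over Renilla control (Dual-Glo) after 4 h compound exposure, top concentration 1 µM, 10 half-log steps.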
For orientation: A reporter such as luciferase makes a cellular process visible.

T1 sequence (O14842 whole entry): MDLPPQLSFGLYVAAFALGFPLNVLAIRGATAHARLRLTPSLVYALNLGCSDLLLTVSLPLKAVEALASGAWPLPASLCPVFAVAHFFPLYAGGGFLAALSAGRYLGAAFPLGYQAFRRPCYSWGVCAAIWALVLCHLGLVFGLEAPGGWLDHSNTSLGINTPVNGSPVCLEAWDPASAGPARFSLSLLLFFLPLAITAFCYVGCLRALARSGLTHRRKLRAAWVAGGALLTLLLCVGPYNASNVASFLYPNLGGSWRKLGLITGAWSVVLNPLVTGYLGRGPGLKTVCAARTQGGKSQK

By EC50 is commonly meant the concentration that produces a half-maximal response. A lower EC50 goes with greater potency. Consider `COc1ccc(F)c(N2CCC(c3oc4cc([C@@H](CC(=O)O)C5CC5)ccc4c3-c3nnc(C(C)(C)C)o3)CC2)c1` [Compound 142], for which the EC50 fell in the range of 100 to 500 nM and the “Efficacy (%)” value was “†† (150 ≥ Efficacy (%) > 100)”.
On to `CC(C)(C)c1nnc(-c2c(C3CCN(c4ccc5c(c4)OCO5)CC3)oc3cc([C@@H](CC(=O)O)C4CC4)ccc23)o1` [Compound 143], for which the EC50 was in the range of 10 to 100 nM and the “Efficacy (%)” value is “†† (150 ≥ Efficacy (%) > 100)”.
For the compound `COc1cccc(N2CCC(c3oc4cc([C@@H](CC(=O)O)C5CC5)ccc4c3-c3cncc(C)c3)CC2)c1` [Compound 144], the EC50 was greater than 500 nM and the “Efficacy (%)” value is on record as “†† (150 ≥ Efficacy (%) > 100)”.
Turning to `COc1cccc(N2CCC(c3oc4cc([C@@H](CC(=O)O)C5CC5)ccc4c3-c3ccnc(C)c3)CC2)c1` [Compound 145], the EC50 was in the range of 10 to 100 nM and the “Efficacy (%)” value is reported as “†† (150 ≥ Efficacy (%) > 100)”.
As for `COc1cccc(N2CCC(c3oc4cc([C@@H](CC(=O)O)C5CC5)ccc4c3-c3cc(C)ccn3)CC2)c1` [Compound 146], the EC50 lay within 100 to 500 nM and the “Efficacy (%)” value is listed as “††† (Efficacy (%) > 150)”.
The matching figures for `COc1cccc(N2CCC(c3oc4cc([C@@H](CC(=O)O)C5CC5)ccc4c3-c3cccc(C)n3)CC2)c1` [Compound 147]: 10 to 100 nM and “††† (Efficacy (%) > 150)”.
Turning to `COc1cccc(N2CCC(c3oc4cc(C(CC(=O)O)C5CC5)ccc4c3-c3cccc(N(CC(C)(C)C)C(C)=O)n3)CC2)c1` (centres unmarked) [Compound 148], the EC50 was 100 to 500 nM and the “Efficacy (%)” value is “†† (150 ≥ Efficacy (%) > 100)”.
As for `COc1cccc(N2CCC(c3oc4cc(C(CC(=O)O)C5CC5)ccc4c3-c3cccc(NC(=O)CC(C)(C)C)n3)CC2)c1` (centres unmarked) [Compound 149], the concentration for a half-maximal effect (EC50) fell in the range of 100 to 500 nM and the “Efficacy (%)” value was “†† (150 ≥ Efficacy (%) > 100)”.
In the case of `COc1cccc(N2CCC(c3oc4cc([C@@H](CC(=O)O)C5CC5)ccc4c3-c3cc4ccccc4[nH]3)CC2)c1` [Compound 150], the EC50 lay in the range of 100 to 500 nM and the “Efficacy (%)” value was “†† (150 ≥ Efficacy (%) > 100)”.
As for `COc1cccc(N2CCC(c3oc4cc([C@@H](CC(=O)O)C5CC5)ccc4c3-c3cc4cccc(F)c4[nH]3)CC2)c1` [Compound 151], the EC50 is 100 to 500 nM and the “Efficacy (%)” value was “†† (150 ≥ Efficacy (%) > 100)”.
For `COc1cccc(N2CCC(c3oc4cc([C@@H](CC(=O)O)C5CC5)ccc4c3-c3nc4ccccc4s3)CC2)c1` [Compound 152], the EC50 lay in the range of 100 to 500 nM and the “Efficacy (%)” value is listed as “†† (150 ≥ Efficacy (%) > 100)”.
Consider `COc1cccc(N2CCC(c3oc4cc([C@@H](CC(=O)O)C5CC5)ccc4c3-c3nc4ccccn4n3)CC2)c1` [Compound 153], for which the EC50 was in the range of 100 to 500 nM and the “Efficacy (%)” value is recorded as “††† (Efficacy (%) > 150)”.
As to `COc1cccc(N2CCC(c3oc4cc([C@@H](CC(=O)O)C5CC5)ccc4c3-c3ccc4ccccc4n3)CC2)c1` [Compound 154], the EC50 fell in the range of 100 to 500 nM and the “Efficacy (%)” value is listed as “††† (Efficacy (%) > 150)”.
The matching figures for `COc1cccc(N2CCC(c3oc4cc([C@@H](CC(=O)O)C5CC5)ccc4c3-c3ccc4cccc(F)c4n3)CC2)c1` [Compound 155]: 10 to 100 nM and “††† (Efficacy (%) > 150)”.
With `COc1ccc(F)c(N2CCC(c3oc4cc(C(CC(=O)O)C5CC5)ccc4c3-c3ccccc3)CC2)c1` (centres unmarked) [Compound 156], the EC50 fell in the range of 100 to 500 nM and the “Efficacy (%)” value was “†† (150 ≥ Efficacy (%) > 100)”.
Regarding `COc1ccc(F)c(N2CCC(c3oc4cc(C(CC(=O)O)C5CC5)ccc4c3-c3cccc(C)c3)CC2)c1` (centres unmarked) [Compound 157], the EC50 was in the range of 100 to 500 nM and the “Efficacy (%)” value is recorded as “††† (Efficacy (%) > 150)”.
`COc1ccc(F)c(N2CCC(c3oc4cc([C@@H](CC(=O)O)C5CC5)ccc4c3-c3cccc(C)c3)CC2)c1` [Compound 158]: the EC50 lay in the range of 100 to 500 nM and the “Efficacy (%)” value is given as “†† (150 ≥ Efficacy (%) > 100)”.
In the case of `COc1ccc(F)c(N2CCC(c3oc4cc(C(CC(=O)O)C5CC5)ccc4c3-c3ccccc3C)CC2)c1` (centres unmarked) [Compound 159], the 50% effective concentration (EC50) was in the range of 100 to 500 nM and the “Efficacy (%)” value is “†† (150 ≥ Efficacy (%) > 100)”.
For `COc1ccc(F)c(N2CCC(c3oc4cc(C(CC(=O)O)C5CC5)ccc4c3-c3ccc(C)cc3)CC2)c1` (centres unmarked) [Compound 160], in that order: 100 to 500 nM and “†† (150 ≥ Efficacy (%) > 100)”.
As for `COc1ccc(F)c(N2CCC(c3oc4cc([C@@H](CC(=O)O)C5CC5)ccc4c3-c3ccc(C)cc3)CC2)c1` [Compound 161], the EC50 is 100 to 500 nM and the “Efficacy (%)” value was “† (100 ≥ Efficacy (%) > 50)”.
Regarding `CCc1ccc(-c2c(C3CCN(c4cc(OC)ccc4F)CC3)oc3cc(C(CC(=O)O)C4CC4)ccc23)cc1` (centres unmarked) [Compound 162], the EC50 lay within 100 to 500 nM and the “Efficacy (%)” value was “††† (Efficacy (%) > 150)”.
Take `COc1ccc(F)c(N2CCC(c3oc4cc(C(CC(=O)O)C5CC5)ccc4c3-c3ccc(C(C)C)cc3)CC2)c1` (centres unmarked) [Compound 163]: the EC50 fell in the range of 100 to 500 nM and the “Efficacy (%)” value is “†† (150 ≥ Efficacy (%) > 100)”.
For `COc1ccc(F)c(N2CCC(c3oc4cc(C(CC(=O)O)C5CC5)ccc4c3-c3cccc(C4CC4)c3)CC2)c1` (centres unmarked) [Compound 164], the EC50 was 100 to 500 nM and the “Efficacy (%)” value is “†† (150 ≥ Efficacy (%) > 100)”.
As to `COc1ccc(F)c(N2CCC(c3oc4cc([C@H](CC(=O)O)C5CC5)ccc4c3-c3cccc(C(C)(C)C)c3)CC2)c1` [Compound 167], the EC50 was 100 to 500 nM and the “Efficacy (%)” value is “†† (150 ≥ Efficacy (%) > 100)”.
As to `COc1ccc(F)c(N2CCC(c3oc4cc([C@H](CC(=O)O)C5CC5)ccc4c3-c3ccc(C(C)(C)C)cc3)CC2)c1` [Compound 170], the EC50 was 100 to 500 nM and the “Efficacy (%)” value is reported as “†† (150 ≥ Efficacy (%) > 100)”.
Turning to `COc1ccc(F)c(N2CCC(c3oc4cc(C(CC(=O)O)C5CC5)ccc4c3-c3cccc(Cl)c3)CC2)c1` (centres unmarked) [Compound 171], the EC50 lay within 100 to 500 nM and the “Efficacy (%)” value is on record as “†† (150 ≥ Efficacy (%) > 100)”.
As to `COc1ccc(F)c(N2CCC(c3oc4cc(C(CC(=O)O)C5CC5)ccc4c3-c3cccc(C(F)(F)F)c3)CC2)c1` (centres unmarked) [Compound 172], the 50% effective concentration (EC50) lay within 100 to 500 nM and the “Efficacy (%)” value is on record as “† (100 ≥ Efficacy (%) > 50)”.
Take `COc1ccc(F)c(N2CCC(c3oc4cc([C@@H](CC(=O)O)C5CC5)ccc4c3-c3cccc(OC(F)(F)F)c3)CC2)c1` [Compound 173]: the EC50 lay in the range of 100 to 500 nM and the “Efficacy (%)” value was “††† (Efficacy (%) > 150)”.
Regarding `COc1ccc(F)c(N2CCC(c3oc4cc(C(CC(=O)O)C5CC5)ccc4c3-c3cccc(C#N)c3)CC2)c1` (centres unmarked) [Compound 174], the EC50 lay within 100 to 500 nM and the “Efficacy (%)” value is reported as “†† (150 ≥ Efficacy (%) > 100)”.
Take `COc1ccc(F)c(N2CCC(c3oc4cc([C@@H](CC(=O)O)C5CC5)ccc4c3-c3ccc(C(C)O)cc3)CC2)c1` (some centres unmarked) [Compound 175]: the EC50 was greater than 500 nM and the “Efficacy (%)” value is “†† (150 ≥ Efficacy (%) > 100)”.
The matching figures for `COc1ccc(F)c(N2CCC(c3oc4cc([C@@H](CC(=O)O)C5CC5)ccc4c3-c3ccc(C(C)OC)cc3)CC2)c1` (some centres unmarked) [Compound 176]: 100 to 500 nM and “†† (150 ≥ Efficacy (%) > 100)”.
